Results on six molecules are retold here after patent US12291502B2, “Topoisomerase II-alpha inhibitors and methods of treating cancer using the same” (The Regents of the University of Colorado, priority 2019, dated 2025).

Structures are written as SMILES.

One test deals with T1, hTopoIIα (TOP2A) (Homo sapiens, UniProt P11388).
T1 construct: purchased Topogen, CO
Description: TOP2A ATPase / DNA relaxation assay, Michaelis-Menten mode of inhibition (malachite green). Type of test: biochemical. Particulars: Vmax unchanged, KM shifted. As to the method:
TOP2A inhibition (Michaelis-Menten). TOP2A Mode of Inhibition was tested with a relaxation assay and the inorganic phosphate (pi) generated was measured with phosphate reagent (Abcam) in black polystyrene 384-well assay plates (Thermo Fisher Scientific). ATP-dependent DNA relaxation assays in 15 μl contained 2 U hTopolla (Topogen), 85 μg/mil (10 nM) supercoiled plasmid (a gift from AstraZeneca), and various concentrations of ATP (between […]) and analog 3 and 7 (between 0 and 20 μM) in 50 mM Tris-HCl (pH 7.5), 150 mM KCl, 5% (v/v) glycerol, 10 mM MgCl2, 1 mM dithiothreitol, 0.002% (w/v) Brij-35, and 200 nM bovine serum albumin (BSA). […] An addition of 70 μL of ddH2O and 15 μL of phosphate reagent were added to each well and the plates were incubated in dark at room temp for 30 min before OD600 was read with a BioTek plate reader. […]
TOP2A ATPase Assay. The mode of inhibition of TOP2A analogs were tested with a DNA relaxation assay and the inorganic phosphate (pi) generated was measured with malachite green phosphate reagent (Abcam, MA) in black polystyrene 384-well assay plates (Thermo Fisher Scientific, MA). […] An addition of 70 μL of ddH2O and 15 μL of phosphate reagent were added to each well and the plates were incubated in dark at room temp for 30 min before OD600 was read with a BioTek plate reader. […]

The subject of another test is SW620 tumor organoids. As to the kind of experiment: Tumor organoid cytotoxicity / 3D cell viability (CellTox Green). Type of test: cell-based. As to the method:
Tumor organoid cytotoxicity. Fluorescence image-based method: The CellTox™ Green assay (Promega, Madison, WI, USA) was used with 3D tumor organoid to measure spheroid death. 0.1% CellTox™ Green was included in each well at the time of analogs dosing. 10% lysis solution was used as a cell death control. Fluorescence was measured at various time points with 465-510 nm excitation and 520-530 nm emission. Luminescence plate reader method: A 1:1 ratio of CellTiter-Glo™ 3D reagent (Promega) was added to 3D tumor organoid and the plate was shaken at 400 rpm for 30 min before luminescence was read with a PerkinElmer Envision plate reader.
Finally, SW620 tumor organoid cytotoxicity experiments were conducted using the CellTox Green assay, a fluorescence image-based method, to determine whether the inhibition of TCF transcription and effects on EMT are not the result of cytotoxicity. […] All of the analogs tested display IC50 dose response >30 μM and were higher compared to the IC50 values obtained during the downregulation of TCF transcription activity, and the EC50 values obtained for EMT modulation. Thus, the biological effects on TCF-transcription and EMT are not a result of tumor organoid cell death.
(§1) Tumor organoid cytotoxicity. SW620 tumor organoids were grown as previously outlined. CellTox™ Green-Express Cytotoxicity Assay (Promega, WI) solution was prepared per manufacturer's protocol. Briefly, organoids were treated for 72 h with CellTox™ Green Express (0.5×) reagent and various doses of TOP2A inhibitors over a range of 0-to-40 μM. Organoids were then imaged using the Opera Phenix HCS system (PerkinElmer, MA). CellTox™ Green Express was excited at 488 nm and emission was detected at 500-550 nm. Mean intensity of the whole well was utilized for calculating cytotoxicity with Lysis Buffer (Promega, WI, 0.025×) as the 0% viability control and 0.4% DMSO as the 100% viability control. Intensity values were normalized to these controls using GraphPad Prism 7.0 (GraphPad, CA).
as §1, with “CellTox™-Green-Express” for “CellTox™ Green-Express”, “(GraphPad.” for “(GraphPad,”

[1] abbreviates: Homo sapiens, SW-620, Table 2, 72 hours.

T1 sequence (P11388 whole entry): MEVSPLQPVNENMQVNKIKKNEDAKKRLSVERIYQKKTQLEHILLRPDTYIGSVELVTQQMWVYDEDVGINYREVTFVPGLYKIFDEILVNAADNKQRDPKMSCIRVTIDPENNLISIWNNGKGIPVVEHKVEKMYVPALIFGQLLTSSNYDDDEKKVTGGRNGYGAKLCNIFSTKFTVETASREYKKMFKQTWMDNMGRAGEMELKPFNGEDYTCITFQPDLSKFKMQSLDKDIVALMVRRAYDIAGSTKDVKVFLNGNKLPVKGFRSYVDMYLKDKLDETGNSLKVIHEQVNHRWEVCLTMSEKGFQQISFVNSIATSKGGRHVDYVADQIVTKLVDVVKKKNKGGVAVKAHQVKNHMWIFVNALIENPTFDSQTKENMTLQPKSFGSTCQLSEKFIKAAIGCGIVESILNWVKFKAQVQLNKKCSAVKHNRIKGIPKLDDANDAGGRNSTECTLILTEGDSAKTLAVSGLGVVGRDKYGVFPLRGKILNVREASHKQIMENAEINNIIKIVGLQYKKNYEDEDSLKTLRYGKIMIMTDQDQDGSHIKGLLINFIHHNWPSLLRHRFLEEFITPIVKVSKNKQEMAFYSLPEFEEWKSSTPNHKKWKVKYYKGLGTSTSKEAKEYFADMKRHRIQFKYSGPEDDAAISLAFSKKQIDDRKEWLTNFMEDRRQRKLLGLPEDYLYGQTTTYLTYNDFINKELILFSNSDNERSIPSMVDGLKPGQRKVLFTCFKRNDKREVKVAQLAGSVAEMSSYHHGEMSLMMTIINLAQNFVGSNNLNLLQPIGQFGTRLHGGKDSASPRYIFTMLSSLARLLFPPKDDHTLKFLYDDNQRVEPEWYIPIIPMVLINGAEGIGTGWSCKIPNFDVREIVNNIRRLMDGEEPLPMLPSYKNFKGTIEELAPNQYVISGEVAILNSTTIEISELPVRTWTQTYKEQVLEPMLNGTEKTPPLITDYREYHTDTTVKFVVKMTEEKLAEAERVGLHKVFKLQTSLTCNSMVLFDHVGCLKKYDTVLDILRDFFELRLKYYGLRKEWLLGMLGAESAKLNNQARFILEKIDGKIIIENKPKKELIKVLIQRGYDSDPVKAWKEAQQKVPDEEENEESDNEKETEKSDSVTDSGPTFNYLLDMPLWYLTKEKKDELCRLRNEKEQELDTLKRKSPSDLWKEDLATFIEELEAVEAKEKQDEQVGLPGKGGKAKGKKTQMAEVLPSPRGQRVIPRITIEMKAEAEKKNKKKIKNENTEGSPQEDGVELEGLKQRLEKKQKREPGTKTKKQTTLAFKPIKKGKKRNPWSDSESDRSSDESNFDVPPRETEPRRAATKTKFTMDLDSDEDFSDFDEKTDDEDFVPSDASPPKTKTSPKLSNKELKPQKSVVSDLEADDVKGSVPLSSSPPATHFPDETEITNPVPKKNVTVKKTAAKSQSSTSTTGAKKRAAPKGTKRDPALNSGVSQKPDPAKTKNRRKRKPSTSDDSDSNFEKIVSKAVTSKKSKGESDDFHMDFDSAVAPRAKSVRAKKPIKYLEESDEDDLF

By IC50 is commonly meant the concentration that gives 50% inhibition. For `CC(=O)Nc1ccc2c(-c3cc(F)ccc3O)ccnc2c1O` [Analog 7], the “mode of TOP2A inhibition (Michaelis-Menten kinetics of ATP hydrolysis)” value on hTopoIIα (TOP2A) is on record as “ATP-competitive mode of inhibition”. Moreover, in the test on SW620 tumor organoids (setting [1]), the IC50 was over 30 µM.

In the test with SW620 tumor organoids (Table 2, 72 hours), `CC(=O)Nc1ccc(-c2ccnc3c(O)c(NC(C)=O)ccc23)cc1` [Analog 35] returned an IC50 of over 30 µM.

In turn, `CC(C)(C)C(=O)Nc1ccc2c(-c3ccccc3)ccnc2c1O` [Analog 39] showed an IC50 in the test with SW620 tumor organoids (Table 2, 72 hours) of over 30 µM.

In the test with SW620 tumor organoids (setting [1]), `O=C(CCN1CCOCC1)Nc1ccc2c(-c3cc(F)ccc3O)ccnc2c1O` [Analog 42] gave a 50% inhibitory concentration (IC50) of over 30 µM.

In turn, `CC(=O)Nc1ccc2c(-c3ccoc3)ccnc2c1O` [Analog 56] showed a 50% inhibitory concentration (IC50) in the test with SW620 tumor organoids (setting [1]) of over 30 µM.

Consider `Cn1ccc2c(c1=O)C(=O)c1nccc3c1C2NC1=CCC=CC13` (stereo not shown) [neo, neoamphimedine, reference compound], for which the “mode of TOP2A inhibition (Michaelis-Menten kinetics of ATP hydrolysis)” value on hTopoIIα (TOP2A) is recorded as “ATP-competitive mode of inhibition”.
